Results: US9676715B2, “Bis-indolic derivatives, a process for preparing the same and their uses as a drug” (UNIVERSITE JOSEPH FOURIER, priority 2011, dated 2017)

What was measured:
[1] = tested on: S. aureus ATCC 106414 (VISA); assay: MIC, microdilution method (9.1); type: cell-based, Staphylococcus aureus; details: Staphylococcus aureus, read after 18 h, read-out: MIC
Procedure, shortened: (§1)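 Broth microdilution per CLSI M07-A8 in Mueller Hinton broth, final inoculum 5×10^5 CFU/ml. Indolic compounds tested as two-fold serial dilutions, 0.50-128 mg/L final. Plates incubated at 37° C. in ambient air; fastidious species received 10% sheep blood and 5% CO2.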

S. aureus ATCC 25923 = assay: MIC, microdilution method (9.1); type: cell-based, Staphylococcus aureus; details: Staphylococcus aureus, ATCC25923, read after 18 h, read-out: MIC
Procedure, shortened: as §1

S. aureus ATCC 29213 = assay: MIC, microdilution method (9.1); type: cell-based, Staphylococcus aureus; details: Staphylococcus aureus, ATCC29213, read after 18 h, read-out: MIC
Procedure, shortened: as §1

[2] = tested on: S. aureus ATCC 33592 (MRSA); assay: MIC, microdilution method (9.1); type: cell-based, Staphylococcus aureus; details: Staphylococcus aureus, read after 18 h, read-out: MIC
Procedure, shortened: as §1

S. aureus ATCC 6538 = assay: MIC, microdilution method (9.1); type: cell-based, Staphylococcus aureus; details: Staphylococcus aureus, ATCC6538, read after 18 h, read-out: MIC
Procedure, shortened: as §1

S. aureus ATCC 9144 = assay: MIC, microdilution method (9.1); type: cell-based, Staphylococcus aureus; details: Staphylococcus aureus, ATCC9144, read after 18 h, read-out: MIC
Procedure, shortened: as §1

S. aureus CIP 103428 = assay: MIC, microdilution method (9.1); type: cell-based, Staphylococcus aureus; details: Staphylococcus aureus, CIP103428, read after 18 h, read-out: MIC
Procedure, shortened: as §1

[3] = tested on: S. aureus CIP 65.25 (MRSA); assay: MIC, microdilution method (9.1); type: cell-based, Staphylococcus aureus; details: Staphylococcus aureus, read after 18 h, read-out: MIC
Procedure, shortened: as §1

S. aureus CIP 65.6 = assay: MIC, microdilution method (9.1); type: cell-based, Staphylococcus aureus; details: Staphylococcus aureus, CIP65, read after 18 h, read-out: MIC
Procedure, shortened: as §1

S. aureus SA-1199B = assay: MIC, microdilution method (9.1); type: cell-based, Staphylococcus aureus; details: Staphylococcus aureus, SA1199B, 18 h
Procedure, shortened: as §1

[4] = tested on: S. epidermidis ATCC 12228; assay: MIC, microdilution method (9.1); type: cell-based, Staphylococcus epidermidis; details: Staphylococcus epidermidis, ATCC12228, read after 18 h, read-out: MIC
Procedure, shortened: as §1

[5] = tested on: S. epidermidis CIP 103627; assay: MIC, microdilution method (9.1); type: cell-based, Staphylococcus epidermidis; details: Staphylococcus epidermidis, CIP103627, read after 18 h, read-out: MIC
Procedure, shortened: as §1

S. epidermidis CIP 81.55 = assay: MIC, microdilution method (9.1); type: cell-based, Staphylococcus epidermidis; details: Staphylococcus epidermidis, CIP81, read after 18 h, read-out: MIC
Procedure, shortened: as §1

S. pneumoniae ATCC 6303 = assay: MIC, microdilution method (9.1); type: cell-based, Streptococcus pneumoniae; details: Streptococcus pneumoniae, ATCC6303, 10% sheep blood, 5% CO2, 18 h, read-out: MIC
Procedure, shortened: as §1

[6] = tested on: S. agalactiae (group B) ATCC 12400; assay: MIC, microdilution method (9.1); type: cell-based, Streptococcus agalactiae; details: Streptococcus agalactiae, ATCC12400, 18 h, read-out: MIC
Procedure, shortened: as §1

[7] = tested on: S. pyogenes (group A) CIP 104226; assay: MIC, microdilution method (9.1); type: cell-based, Streptococcus pyogenes; details: Streptococcus pyogenes, CIP104226, 18 h, read-out: MIC
Procedure, shortened: as §1

S. mitis CIP 103335 = assay: MIC, microdilution method (9.1); type: cell-based, Streptococcus mitis; details: Streptococcus mitis, CIP103335, 18 h, read-out: MIC
Procedure, shortened: as §1

E. faecium CIP 54.32 = assay: MIC, microdilution method (9.1); type: cell-based, Enterococcus faecium; details: Enterococcus faecium, CIP54, 18 h, read-out: MIC
Procedure, shortened: as §1

E. faecalis ATCC 29212 = assay: MIC, microdilution method (9.1); type: cell-based, Enterococcus faecalis; details: Enterococcus faecalis, ATCC29212, 18 h, read-out: MIC
Procedure, shortened: as §1

[8] = tested on: Acinetobacter baumanii ATCC 19606; assay: MIC, microdilution method (9.1); type: cell-based; details: Acinetobacter baumannii, ATCC19606, 18 h, read-out: MIC
Procedure, shortened: as §1

[9] = tested on: Bacillus subtilis CIP 5262; assay: MIC, microdilution method (9.1); type: cell-based; details: CIP5262, 18 h, read-out: MIC
Procedure, shortened: as §1

[10] = tested on: Enterobacter cloacae ATCC13047; assay: MIC, microdilution method (9.1); type: cell-based; details: 18 h
Procedure, shortened: as §1

[11] = tested on: Escherichia coli ATCC 25922; assay: MIC, microdilution method (9.1); type: cell-based; details: ATCC25922, 18 h
Procedure, shortened: as §1

[12] = tested on: Haemophilus influenzae ATCC 49766; assay: MIC, microdilution method (9.1); type: cell-based; details: ATCC49766; Haemophilus influenzae ATCC 49766; 10% sheep blood, 5% CO2; 18 h; read-out: MIC
Procedure, shortened: as §1

[13] = tested on: Klebsiella pneumoniae API ATCC 35657; assay: MIC, microdilution method (9.1); type: cell-based; details: ATCC35657, 18 h, read-out: MIC
Procedure, shortened: as §1

[14] = tested on: Listeria innocua CIP 80.11; assay: MIC, microdilution method (9.1); type: cell-based; details: CIP80, 18 h, read-out: MIC
Procedure, shortened: as §1

[15] = tested on: Pseudomonas aeruginosa CIP 5933; assay: MIC, microdilution method (9.1); type: cell-based; details: CIP5933, 18 h, read-out: MIC
Procedure, shortened: as §1

S. pneumoniae ATCC 49619 = assay: MIC, microdilution method (9.1); type: cell-based; details: Streptococcus pneumoniae, ATCC49619, 10% sheep blood, 5% CO2, 18 h
Procedure, shortened: as §1

[16] = tested on: Serratia marcescens CIP 103551; assay: MIC, microdilution method (9.1); type: cell-based; details: CIP103551, 18 h
Procedure, shortened: as §1

[17] = tested on: 29 bacterial strains belonging to 17 different species; assay: MIC determination, overall statements on the bacterial panel; type: cell-based; details: summary of MIC results
Protocol: The microdilution method recommended by the Clinical and Laboratory Standard Institute [M07-A8, Vol. 29, No. 2] was used. The activity of indolic compounds was tested against 29 bacterial strains belonging to 17 different species and 12 different genera (Staphylococcus, Streptococcus, Enterococcus, Listeria, Bacillus, Haemophilus, Escherichia, Klebsiella, Enterobacter, Serratia, Pseudomonas, and Acinetobacter). Bacterial inocula were prepared in Mueller Hinton broth (MH2, bioMérieux, Marcy L'Etoile, France), supplemented with 10% sheep blood for fastidious species (i.e., Streptococcus pneumoniae and Haemophilus influenzae). They were dispensed in 96 well microtiter plates (5×10^5 CFU/ml of final inoculum). Indolic compounds were added to the wells as to obtain two-fold serial concentrations (0.50-128 mg/L of final concentrations). Plates were incubated at 37° C. in ambient air, or at 37° C. in 5% CO2 enriched atmosphere for fastidious species. […] Drug-free cultures served as growth controls. Cultures receiving gentamicin, ciprofloxacin or cefotaxime served as positive controls.

[18] = tested on: HCT116 (human colon tumor); assay: In vitro cytotoxicity; type: cell-based; details: HCT-116, HCT116, from 100 μM to 0.005 μM in DMSO, duplicate

For `CC(C)(C)OC(=O)NCC(NC(=O)c1ccccc1)c1c[nH]c2ccc(Br)cc12` (centres unmarked) [Compound 8, t-Butyl (2-benzamido-2-(5-bromo-1H-indol-3-yl)ethyl) carbamate], which MIC [1] is on record?
Its MIC is over 128 mg/L.

What about the MIC (S. aureus ATCC 25923) of the same compound?
The MIC was over 128 mg/L.

And the MIC (S. aureus ATCC 29213)?
The MIC was over 128 mg/L.

And the MIC [2]?
Its MIC is over 128 mg/L.

And the MIC (S. aureus ATCC 6538)?
The MIC was over 128 mg/L.

And the MIC (S. aureus ATCC 9144)?
The MIC was over 128 mg/L.

And the MIC (S. aureus CIP 103428)?
Its MIC is over 128 mg/L.

And the MIC [3]?
Its MIC is over 128 mg/L.

And the MIC (S. aureus CIP 65.6)?
The MIC was over 128 mg/L.

And the MIC (S. aureus SA-1199B)?
The MIC was over 128 mg/L.

And the MIC [4]?
The MIC was over 128 mg/L.

What about the MIC [5] of the same compound?
The MIC was over 128 mg/L.

And the MIC (S. epidermidis CIP 81.55)?
The MIC was over 128 mg/L.

And the MIC (S. pneumoniae ATCC 6303)?
Its MIC is over 128 mg/L.

And the MIC [6]?
The MIC was over 128 mg/L.

And the MIC [7]?
Its MIC is over 128 mg/L.

What about the MIC (S. mitis CIP 103335) of the same compound?
The MIC was over 128 mg/L.

What about the MIC (E. faecium CIP 54.32) of the same compound?
Its MIC is over 128 mg/L.

And the MIC (E. faecalis ATCC 29212)?
The MIC was over 128 mg/L.

What about the MIC [8] of the same compound?
The MIC was over 128 mg/L.

What about the MIC [9] of the same compound?
Its MIC is over 128 mg/L.

And the MIC [10]?
The MIC was over 128 mg/L.

And the MIC [11]?
Its MIC is over 128 mg/L.

And the MIC [12]?
Its MIC is over 128 mg/L.

What about the MIC [13] of the same compound?
Its MIC is over 128 mg/L.

What about the MIC [14] of the same compound?
The MIC was over 128 mg/L.

And the MIC [15]?
The MIC was over 128 mg/L.

What about the MIC (S. pneumoniae ATCC 49619) of the same compound?
Its MIC is over 128 mg/L.

What about the MIC [16] of the same compound?
Its MIC is over 128 mg/L.

And the “intrinsic antibacterial activity (in words)” value [17]?
The value was “lack of intrinsic antibacterial activity”.

What about the IC50 ([18]; first value) of the same compound?
Its IC50 is 6.14 µM.

What about the IC50 ([18]; second value) of the same compound?
Its IC50 is 7.33 µM.
